Assay results published in patent US20090181963A1, “3H-[1,2,3]TRIAZOLO[4,5-D]PYRIMIDINE COMPOUNDS, THEIR USE AS mTOR KINASE AND PI3 KINASE INHIBITORS, AND THEIR [sequence]” (Wyeth, priority 2008, published 2009).

Legend:
[1] = target: PI3 Kinase α (Homo sapiens, UniProt P42336); experiment: Fluorescence polarization assay for PI3K (PI3 Kinase α); type: biochemical; conditions: diC8-PI(4,5)P2 substrate, 25 μM ATP, one hour at 25° C.
[2] = target: PI3 Kinase γ (Homo sapiens, UniProt P48736); experiment: Fluorescence polarization assay for PI3K (PI3 Kinase γ); type: biochemical; conditions: diC8-PI(4,5)P2 substrate, 25 μM ATP, one hour at 25° C.
Sequence of PI3 Kinase γ (P48736 whole entry): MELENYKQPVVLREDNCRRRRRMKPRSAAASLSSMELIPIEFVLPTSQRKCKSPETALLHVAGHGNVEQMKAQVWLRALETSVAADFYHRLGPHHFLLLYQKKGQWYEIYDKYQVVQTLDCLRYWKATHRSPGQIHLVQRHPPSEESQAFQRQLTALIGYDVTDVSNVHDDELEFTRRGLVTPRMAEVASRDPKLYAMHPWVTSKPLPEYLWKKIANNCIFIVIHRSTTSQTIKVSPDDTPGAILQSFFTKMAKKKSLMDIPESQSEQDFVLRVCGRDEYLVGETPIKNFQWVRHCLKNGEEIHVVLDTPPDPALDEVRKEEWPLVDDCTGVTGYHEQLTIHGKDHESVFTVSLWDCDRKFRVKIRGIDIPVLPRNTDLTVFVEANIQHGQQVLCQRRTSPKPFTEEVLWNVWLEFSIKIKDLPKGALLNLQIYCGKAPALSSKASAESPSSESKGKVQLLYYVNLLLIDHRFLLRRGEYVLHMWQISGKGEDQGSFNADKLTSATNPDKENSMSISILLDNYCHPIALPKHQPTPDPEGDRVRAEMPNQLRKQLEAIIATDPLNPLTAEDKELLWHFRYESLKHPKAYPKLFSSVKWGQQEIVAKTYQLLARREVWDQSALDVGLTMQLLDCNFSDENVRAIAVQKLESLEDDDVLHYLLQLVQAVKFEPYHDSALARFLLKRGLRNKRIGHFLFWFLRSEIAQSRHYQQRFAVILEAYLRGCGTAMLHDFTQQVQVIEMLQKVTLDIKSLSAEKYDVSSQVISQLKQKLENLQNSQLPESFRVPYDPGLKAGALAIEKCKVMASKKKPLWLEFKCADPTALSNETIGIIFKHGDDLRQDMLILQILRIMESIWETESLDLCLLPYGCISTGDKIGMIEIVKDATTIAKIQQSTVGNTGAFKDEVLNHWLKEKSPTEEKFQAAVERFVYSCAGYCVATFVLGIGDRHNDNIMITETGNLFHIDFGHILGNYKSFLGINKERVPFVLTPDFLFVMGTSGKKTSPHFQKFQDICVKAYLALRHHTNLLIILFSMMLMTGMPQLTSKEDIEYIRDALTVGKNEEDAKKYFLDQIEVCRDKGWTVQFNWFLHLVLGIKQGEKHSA
Method: Nunc 384 well black polypropylene fluorescent plates were used for PI3K assays. Reactions were quenched by the addition of EDTA to a final concentration of 10 μM. Final reaction volumes were 10 ml. […] Reactions were allowed to proceed for one hour at 25° C. After I hour, GST-tagged GRP1 (general receptor for phosphoinositides) PH domain fusion protein was added to a final concentration of 100 nM, and BODIPY-TMRI(1,3,4,5)P4 (Echelon) was also added to a final concentration of 5 nM. Final sample volumes were 25 μl with a final DMSO concentration of 0.8%. Assay Plates were read on PerkinElmer Envision plate readers with appropriate filters for Tamra [BODIPY-TMRI(1,3,4,5)P4]. Data obtained were used to calculate enzymatic activity and enzyme inhibition by inhibitor compounds.

Sequence of PI3 Kinase α (P42336 whole entry): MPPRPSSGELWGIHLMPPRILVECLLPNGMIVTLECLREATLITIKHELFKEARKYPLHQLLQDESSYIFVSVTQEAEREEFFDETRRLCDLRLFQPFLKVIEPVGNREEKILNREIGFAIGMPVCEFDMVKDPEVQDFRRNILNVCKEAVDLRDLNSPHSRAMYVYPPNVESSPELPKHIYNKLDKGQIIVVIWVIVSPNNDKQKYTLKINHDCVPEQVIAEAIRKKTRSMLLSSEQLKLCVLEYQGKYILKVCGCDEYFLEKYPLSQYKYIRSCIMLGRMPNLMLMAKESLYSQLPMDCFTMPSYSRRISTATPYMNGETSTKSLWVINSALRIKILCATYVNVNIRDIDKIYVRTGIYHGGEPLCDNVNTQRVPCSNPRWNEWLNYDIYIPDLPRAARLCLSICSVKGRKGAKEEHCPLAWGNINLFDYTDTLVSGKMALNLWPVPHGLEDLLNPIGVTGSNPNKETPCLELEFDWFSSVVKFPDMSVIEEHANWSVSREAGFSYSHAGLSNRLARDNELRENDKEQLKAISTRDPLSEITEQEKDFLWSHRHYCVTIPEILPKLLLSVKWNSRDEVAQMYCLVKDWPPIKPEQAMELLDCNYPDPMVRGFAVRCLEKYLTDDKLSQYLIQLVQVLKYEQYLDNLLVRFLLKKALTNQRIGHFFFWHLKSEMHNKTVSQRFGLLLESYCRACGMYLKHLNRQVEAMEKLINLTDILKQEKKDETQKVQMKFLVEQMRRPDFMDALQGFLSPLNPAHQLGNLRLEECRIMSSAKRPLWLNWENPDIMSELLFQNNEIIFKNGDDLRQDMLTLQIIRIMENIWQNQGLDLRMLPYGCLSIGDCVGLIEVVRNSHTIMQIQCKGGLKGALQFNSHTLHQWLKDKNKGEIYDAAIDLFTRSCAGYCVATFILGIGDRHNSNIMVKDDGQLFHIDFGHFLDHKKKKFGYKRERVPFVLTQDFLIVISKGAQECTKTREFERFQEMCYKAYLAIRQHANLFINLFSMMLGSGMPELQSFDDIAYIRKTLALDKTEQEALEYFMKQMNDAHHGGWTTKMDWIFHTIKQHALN
Sequence of PI3 Kinase α (P27986 whole entry partner): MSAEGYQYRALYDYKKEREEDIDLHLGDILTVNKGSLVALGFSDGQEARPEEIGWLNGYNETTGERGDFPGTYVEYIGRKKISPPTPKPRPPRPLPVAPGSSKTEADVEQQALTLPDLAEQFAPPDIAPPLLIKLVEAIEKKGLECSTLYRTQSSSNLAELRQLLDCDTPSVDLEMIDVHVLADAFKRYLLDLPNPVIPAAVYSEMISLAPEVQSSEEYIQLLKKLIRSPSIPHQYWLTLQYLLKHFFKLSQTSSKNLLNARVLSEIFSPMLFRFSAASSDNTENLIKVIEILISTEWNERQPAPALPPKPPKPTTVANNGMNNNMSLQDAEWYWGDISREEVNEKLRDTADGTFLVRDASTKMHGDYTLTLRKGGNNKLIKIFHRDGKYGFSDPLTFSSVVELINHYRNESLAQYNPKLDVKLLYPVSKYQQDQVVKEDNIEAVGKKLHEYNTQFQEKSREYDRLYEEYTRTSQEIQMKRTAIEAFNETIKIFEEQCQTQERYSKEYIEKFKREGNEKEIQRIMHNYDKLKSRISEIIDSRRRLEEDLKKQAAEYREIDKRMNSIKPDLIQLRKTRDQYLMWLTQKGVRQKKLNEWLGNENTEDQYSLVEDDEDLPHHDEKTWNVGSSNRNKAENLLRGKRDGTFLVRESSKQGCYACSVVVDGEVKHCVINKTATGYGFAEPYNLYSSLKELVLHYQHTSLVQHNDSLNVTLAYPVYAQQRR

| Compound | IC50 [1] [nM] | IC50 [2] [nM] |
| --- | --- | --- |
| Oc1cccc(-c2nc(N3CCOCC3)c3nnn(CCN4CCN(Cc5cccnc5)CC4)c3n2)c1 [Example 111, 3-(7-morpholin-4-yl-3-{2-[4-(pyridin-3-ylmethyl)piperazin-1-yl]ethyl}-3H-[1,2,3]triazolo[4,5-d]pyrimidin-5-yl)phenol] | 439 | 2290 |
| CCn1nnc2c(N3CCOCC3)nc(-c3ccc(NC(=O)Nc4ccc(C(=O)O)cc4)cc3)nc21 [Example 42, 4-({[4-(3-ethyl-7-morpholin-4-yl-3H-[1,2,3]triazolo[4,5-d]pyrimidin-5-yl)phenyl]carbamoyl}amino)benzoic acid] | 10.5 | 35.3 |
| CCn1nnc2c(N3CCOC[C@@H]3C)nc(-c3ccc(NC(=O)Nc4ccc(CO)cc4)cc3)nc21 [Example 70, (S)-1-(4-(3-ethyl-7-(3-methylmorpholino)-3H-[1,2,3]triazolo[4,5-d]pyrimidin-5-yl)phenyl)-3-(4-(hydroxymethyl)phenyl)urea] | 5.5 | 102 |
| Oc1cccc(-c2nc(N3CCOCC3)c3nnn(CCN4CCN(Cc5ccco5)CC4)c3n2)c1 [Example 113, 3-(3-{2-[4-(2-furylmethyl)piperazin-1-yl]ethyl}-7-morpholin-4-yl-3H-[1,2,3]triazolo[4,5-d]pyrimidin-5-yl)phenol] | 726 | 3350 |
| CN(C)CCCOc1ccc(CN2CCN(CCn3nnc4c(N5CCOCC5)nc(-c5cccc(O)c5)nc43)CC2)cc1 [Example 110, 3-{3-[2-(4-{4-[3-(dimethylamino)propoxy]benzyl}piperazin-1-yl)ethyl]-7-morpholin-4-yl-3H-[1,2,3]triazolo[4,5-d]pyrimidin-5-yl}phenol] | 200 | 402 |
| O=C(Nc1ccncc1)Nc1ccc(-c2nc(N3CCOCC3)c3nnn(C4CC4)c3n2)cc1 [Example 78, 1-(4-(3-cyclopropyl-7-morpholino-3H-[1,2,3]triazolo[4,5-d]pyrimidin-5-yl)phenyl)-3-(pyridin-4-yl)urea] | 6 | 13.5 |
| O=C(Nc1ccc(-c2nc(N3CCOCC3)c3nnn(C4CC4)c3n2)cc1)Nc1cccnc1 [Example 79, 1-(4-(3-cyclopropyl-7-morpholino-3H-[1,2,3]triazolo[4,5-d]pyrimidin-5-yl)phenyl)-3-(pyridin-3-yl)urea] | 7 | 34 |
| CC(C)n1nnc2c(N3CCOCC3)nc(-c3ccc(NC(=O)Nc4cc[nH]c4)cc3)nc21 [Example 95, 1-[4-(3-isopropyl-7-morpholin-4-yl-3H-[1,2,3]triazolo[4,5-d]pyrimidin-5-yl)-phenyl]-3-(1H-pyrrol-3-yl)-urea] | 33.7 | 91 |
| CCn1nnc2c(N3CCOCC3)nc(-c3ccc(NC(=O)Nc4ccc(C(=O)N5CCC(N6CCOCC6)CC5)cc4)cc3)nc21 [Example 48, 1-[4-(3-ethyl-7-morpholin-4-yl-3H-[1,2,3]triazolo[4,5-d]pyrimidin-5-yl)phenyl]-3-{4-[(4-morpholin-4-ylpiperidin-1-yl)carbonyl]phenyl}urea] | 5.5 | 31 |
| CCn1nnc2c(N3CCOC[C@@H]3C)nc(-c3ccc(NC(=O)Nc4ccc(CCO)cc4)cc3)nc21 [Example 68, (S)-1-(4-(3-ethyl-7-(3-methylmorpholino)-3H-[1,2,3]triazolo[4,5-d]pyrimidin-5-yl)phenyl)-3-(4-(2-hydroxyethyl)phenyl)urea] | 9 | 70.3 |
| CCn1nnc2c(N3CCOC[C@@H]3C)nc(-c3ccc(N)cc3)nc21 [Example 67, (S)-4-(3-ethyl-7-(3-methylmorpholino)-3H-[1,2,3]triazolo[4,5-d]pyrimidin-5-yl)aniline] | 2140 | > 10000 |
| Oc1cccc(-c2nc(N3CCOCC3)c3nnn(CCCN4CCCC4)c3n2)c1 [Example 9, 3-[7-morpholin-4-yl-3-(3-pyrrolidin-1-ylpropyl)-3H-[1,2,3]triazolo[4,5-d]pyrimidin-5-yl]phenol] | 57 | 242 |
| CCn1nnc2c(N3CCOCC3)nc(-c3ccc(NC(=O)Nc4ccc(C(=O)OC)cc4)cc3)nc21 [Example 41, methyl 4-({[4-(3-ethyl-7-morpholin-4-yl-3H-[1,2,3]triazolo[4,5-d]pyrimidin-5-yl)phenyl]carbamoyl}amino)benzoate] | 23.3 | 84.5 |
| CC(C)CN1CCN(CCn2nnc3c(N4CCOCC4)nc(-c4cccc(O)c4)nc32)CC1 [Example 108, 3-{3-[2-(4-isobutylpiperazin-1-yl)ethyl]-7-morpholin-4-yl-3H-[1,2,3]triazolo[4,5-d]pyrimidin-5-yl}phenol] | 941 | 2770 |
| O=C(Nc1ccc(-c2nc(N3CCOCC3)c3nnn(C4CCN(Cc5ccccc5)CC4)c3n2)cc1)C(F)(F)F [Example 5, N-{4-[3-(1-benzylpiperidin-4-yl)-7-morpholin-4-yl-3H-[1,2,3]triazolo[4,5-d]pyrimidin-5-yl]phenyl}-2,2,2-trifluoroacetamide] | 68 | 133 |
| Oc1cccc(-c2nc(N3CCOCC3)c3nnn(CCN4CCNCC4)c3n2)c1 [Example 98, 3-[7-morpholin-4-yl-3-(2-piperazin-1-ylethyl)-3H-[1,2,3]triazolo[4,5-d]pyrimidin-5-yl]phenol] | 54 | 595 |
| CC(C)(C)OC(=O)N1CCN(CCn2nnc3c(N4CCOCC4)nc(-c4cccc(O)c4)nc32)CC1 [Example 97, tert-butyl 4-{2-[5-(3-hydroxyphenyl)-7-morpholin-4-yl-3H-[1,2,3]triazolo[4,5-d]pyrimidin-3-yl]ethyl}piperazine-1-carboxylate] | 1020 | 4360 |
| CCn1nnc2c(N3CCOCC3)nc(-c3ccc(NC(=O)Nc4cccs4)cc3)nc21 [Example 40, 1-[4-(3-ethyl-7-morpholin-4-yl-3H-[1,2,3]triazolo[4,5-d]pyrimidin-5-yl)phenyl]-3-(2-thienyl)urea] | 2.5 | 11.5 |

Results, then the compound that gave them:

| IC50 [1] [nM] | IC50 [2] [nM] | Compound |
| --- | --- | --- |
| 260 | 1840 | CCNC(=O)c1ccc(Cn2nnc3c(N4CCOCC4)nc(-c4cccc(O)c4)nc32)cc1 [Example 219, N-ethyl-4-{[5-(3-hydroxyphenyl)-7-morpholin-4-yl-3H-[1,2,3]triazolo[4,5-d]pyrimidin-3-yl]methyl}benzamide] |
| 370 | 1950 | CC(C)(C)OC(=O)Cn1nnc2c(N3CCOCC3)nc(-c3cccc(CO)c3)nc21 [Example 232, tert-butyl {5-[3-(hydroxymethyl)phenyl]-7-morpholin-4-yl-3H-[1,2,3]triazolo[4,5-d]pyrimidin-3-yl}acetate] |
| 31 | 210 | CN(C)CCCOc1ccc(CN2CC(Cn3nnc4c(N5CCOCC5)nc(-c5ccc(NC(=O)Nc6ccccc6)cc5)nc43)C2)cc1 [Example 194, 1-(4-{3-[(1-{4-[3-(Dimethylamino)propoxy]benzyl}azetidin-3-yl)methyl]-7-morpholin-4-yl-3H-[1,2,3]triazolo[4,5-d]pyrimidin-5-yl}phenyl)-3-phenylurea] |
| 22 | 147 | CN1CCC(n2nnc3c(N4CCOCC4)nc(-c4ccc(NC(=O)Nc5cccnc5)cc4)nc32)CC1 [Example 164, 1-{4-[3-(1-methylpiperidin-4-yl)-7-morpholin-4-yl-3H-[1,2,3]triazolo[4,5-d]pyrimidin-5-yl]phenyl}-3-pyridin-3-ylurea] |
| 2080 | 12000 | CC(C)(C)OC(=O)N1CC(Cn2nnc3c(N4CCOCC4)nc(-c4ccc(N)cc4)nc32)C1 [Example 187, tert-Butyl 3-{[5-(4-aminophenyl)-7-morpholin-4-yl-3H-[1,2,3]triazolo[4,5-d]pyrimidin-3-yl]methyl}azetidine-1-carboxylate] |
| 560 | 1880 | CNC(=O)Cn1nnc2c(N3CCOCC3)nc(-c3cccc(CO)c3)nc21 [Example 236, 2-{5-[3-(hydroxymethyl)phenyl]-7-morpholin-4-yl-3H-[1,2,3]triazolo[4,5-d]pyrimidin-3-yl}-N-methylacetamide] |
| 3 | 12.5 | O=C(Nc1ccc(CCO)cc1)Nc1ccc(-c2nc(N3CCOCC3)c3nnn(CC(F)(F)F)c3n2)cc1 [Example 138, 1-[4-(2-hydroxyethyl)phenyl]-3-{4-[7-morpholin-4-yl-3-(2,2,2-trifluoroethyl)-3H-[1,2,3]triazolo[4,5-d]pyrimidin-5-yl]phenyl}urea] |
| 126 | 958 | O=C(NCC(O)c1ccccc1)c1ccc(Cn2nnc3c(N4CCOCC4)nc(-c4cccc(O)c4)nc32)cc1 (stereo not drawn) [Example 226, N-(2-hydroxy-2-phenylethyl)-4-{[5-(3-hydroxyphenyl)-7-morpholin-4-yl-3H-[1,2,3]triazolo[4,5-d]pyrimidin-3-yl]methyl}benzamide] |
| 170 | 557 | CN(C)CCNC(=O)Nc1ccc(-c2nc(N3CCOCC3)c3nnn(C4CCN(Cc5ccc(Cl)cc5F)CC4)c3n2)cc1 [Example 156, 1-(4-(3-(1-(4-chloro-2-fluorobenzyl)piperidin-4-yl)-7-morpholino-3H-[1,2,3]triazolo[4,5-d]pyrimidin-5-yl)phenyl)-3-(2-(dimethylamino)ethyl)urea] |
| 148 | 549 | O=C(Nc1ccccc1)Nc1ccc(-c2nc(N3CCOCC3)c3nnn(CC4CN(Cc5ccc(F)cc5)C4)c3n2)cc1 [Example 192, 1-[4-(3-{[1-(4-fluorobenzyl)azetidin-3-yl]methyl}-7-morpholin-4-yl-3H-[1,2,3]triazolo[4,5-d]pyrimidin-5-yl)phenyl]-3-phenylurea] |
| 43 | 135 | O=C(NCCc1c[nH]c2ccccc12)c1ccc(Cn2nnc3c(N4CCOCC4)nc(-c4cccc(O)c4)nc32)cc1 [Example 225, 4-{[5-(3-hydroxyphenyl)-7-morpholin-4-yl-3H-[1,2,3]triazolo[4,5-d]pyrimidin-3-yl]methyl}-N-[2-(1H-indol-3-yl)ethyl]benzamide] |
| 146 | 176 | CN(C)CCNC(=O)Nc1ccc(-c2nc(N3CCOCC3)c3nnn(C4CCN(Cc5ccc(F)cc5)CC4)c3n2)cc1 [Example 153, 1-(2-(dimethylamino)ethyl)-3-(4-(3-(1-(4-fluorobenzyl)piperidin-4-yl)-7-morpholino-3H-[1,2,3]triazolo[4,5-d]pyrimidin-5-yl)phenyl)urea] |
